The values below come from US20030166721A1, “Choline derivative for the treatment of alzheimer's disease” (priority 2000, published 2003).

Structures are written as SMILES.

The data set has as its system Wistar rats. Kind of data set: Behavioural and EEG effects in rats at different doses. It is filed as in vivo, rat. As to the method:
Young male Wistar rats (200-260) were used in the experiments, housed in a standard temperature and humidity conditions, with food and water ad libitum.
The animals, anaesthetised with chloral hydrate (400 mg/kg) […], were stereotaxically implanted (Kopft Instruments) with cortical electrodes (n=4) onto the fronto-parietal region of the neocortex on both cerebral hemispheres, to record EEG. After surgery all animals were housed 48 h to allow a complete recovery.
48 Hours after electrode implantation, the animals, placed in a transparent box and freely moving, were connected with an electroencephalograph and the electrocortical activity was continuously monitored and recorded. After a 30 min control time, the compounds under test were intraperitoneally administered and EEG recording was continued for 90-120 min
EEG was recorded by computerised 24-channels apparatus (Vega 24, Galileo type, ESA-OTE Biomedica, Florence, Italy), while the spectrum activity was quantitatively analysed by a Berg Fourier analyser (ESA-OTE Biomedica, Florence, Italy). The total EEG power (0.25-16 Hz range) was divided into 5 variable frequency bands: δ 0.25-3 Hz, θ 3-6; α1 6-9; α2 9-12 and β12-16 Hz.
The EEG patterns and behavioral effects observed in the rat after administration of the choline derivatives and of the vehicle is reported in 5 Tab. 3. Such effects can be ascribed to the changes of EEG spectrum total power. An […] in EEG total power is related with the presence of slow frequency waves (synchronisation), whereas an […] thereof is related with the presence of rapid frequency waves (desynchronisation).

`CC(C)(C)C(=O)OCC[N+](C)(C)C.[I-]` [PC-1, pivaloylcholine iodide]: the Behaviour entry reads like this: (1 mg) “Alert response”; (5 mg) “Alert response”; (50 mg) “Convulsions and death (50%)”. The “EEG Activity (change of EEG total power)” value is recorded as “Decrease” (1 mg), “Decrease” (5 mg) and “Peaks” (50 mg).
